Data from PubChem BioAssay (NCI).
“And” between values parts separate entries of the source, which are not always exact repeats. Equal values may be shown once.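 Following 48 hours of exposure in 96-well plates, responses at five concentrations were used to interpolate endpoints linearly. GI50 = concentration required for 50% inhibition of growth. TGI: total growth inhibition.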 Where a SMILES comes first, the peptide text is derived from it.

Columns and labels:
Experiment in all cases: NCI anticancer screen, dose series, 48 h
COLO 205 colon = tested on: COLO 205 colon
IGROV1 ovarian = tested on: IGROV1 ovarian
OVCAR-4 ovarian = tested on: OVCAR-4 ovarian
OVCAR-5 ovarian = tested on: OVCAR-5 ovarian
OVCAR-8 ovarian = tested on: OVCAR-8 ovarian
SF-268 CNS = tested on: SF-268 CNS
SF-539 CNS = tested on: SF-539 CNS
SNB-75 CNS = tested on: SNB-75 CNS
U251 CNS = tested on: U251 CNS
UACC-62 melanoma = tested on: UACC-62 melanoma

Structure (SMILES) | GI50 (COLO 205 colon) | TGI (COLO 205 colon) | GI50 (IGROV1 ovarian) | TGI (IGROV1 ovarian) | GI50 (OVCAR-4 ovarian) | TGI (OVCAR-4 ovarian) | GI50 (OVCAR-5 ovarian) | TGI (OVCAR-5 ovarian) | GI50 (OVCAR-8 ovarian) | TGI (OVCAR-8 ovarian) | GI50 (SF-268 CNS) | TGI (SF-268 CNS) | GI50 (SF-539 CNS) | TGI (SF-539 CNS) | GI50 (SNB-75 CNS) | TGI (SNB-75 CNS) | GI50 (U251 CNS) | TGI (U251 CNS) | GI50 (UACC-62 melanoma) | TGI (UACC-62 melanoma)
CC(=O)O[C@H]1C(=O)O[C@@H]2C[C@H]3C(C)=CC(=O)[C@@H](O)[C@]3(C)[C@H]3[C@@]4(O)OC[C@]32[C@@H]1[C@@H](C)[C@H]4O | 0.136 µM | 0.365 µM and 0.686 µM | < 0.01 µM | 1.4 µM and 0.247 µM | 0.0394 µM | 0.758 µM and 0.409 µM | 0.0588 µM | 1.11 µM and 3.51 µM | 0.0266 µM | 1.55 µM and 0.218 µM | 0.0173 µM | 0.0585 µM and 0.184 µM | < 0.01 µM | 0.0151 µM and 0.0663 µM | < 0.017 µM | 0.104 µM and 0.154 µM | < 0.01 µM | 0.049 µM and 0.0797 µM | 0.0271 µM | 0.531 µM and 0.2 µM
CNNCc1ccc(C(=O)NC(C)C)cc1 | – | > 500 µM | > 500 µM | > 500 µM | – | > 500 µM | > 500 µM | > 500 µM | – | > 500 µM | – | > 500 µM | – | > 500 µM | > 500 µM | > 500 µM | > 500 µM | > 500 µM | > 500 µM | 393 µM and > 500 µM
CC1(C)OC(C(N)=O)=C(C(N)=O)O1 | – | > 100 µM | – | > 100 µM | – | > 100 µM | – | > 100 µM | – | > 100 µM | – | > 100 µM | – | > 100 µM | – | > 100 µM | – | > 100 µM | – | > 100 µM
Nc1ncnc(NC2C=C(CO)C(O)C2O)c1[N+](=O)[O-] (stereo not given) | – | > 100 µM | – | > 100 µM | – | > 100 µM | – | > 100 µM | – | > 100 µM | – | > 100 µM | – | > 100 µM | – | > 100 µM | – | > 100 µM | – | > 100 µM
COc1ccc(N(CC(=O)NCCC[Te]c2ccccc2)C(=O)CCSC2=C(C)C(=O)c3ccccc3C2=O)cc1 | 1.99 µM | 3.64 µM | 0.888 µM | 2.35 µM | 2.95 µM | 11.2 µM | 0.498 µM | 1.88 µM | 0.722 µM | 6.06 µM | 1.11 µM | 3.99 µM | 1.88 µM | 3.65 µM | 1.17 µM | 7.64 µM | 0.553 µM | 2.32 µM | 1.82 µM | 4.31 µM
Cc1c(C(=O)CC(=O)C(=O)Nc2ccc(Cl)c(Cl)c2)[n+](=O)c2ccccc2n1[O-] | – | 36.1 µM | – | 50.8 µM | – | 34.7 µM | – | 86.4 µM | – | 43.6 µM | – | 85.2 µM | – | 57.5 µM | – | 48.9 µM | – | 72.3 µM | – | 32.7 µM
COc1ccc(C(c2ccc(C(C)C)cc(=O)c2O)c2ccc3cccnc3c2O)cc1 (stereo not given) | – | 19.3 µM | – | 15.3 µM | – | 23.9 µM | – | 6.32 µM | – | 12.7 µM | – | 10.4 µM | – | 2.29 µM | – | 0.589 µM | – | 3.5 µM | – | 4.63 µM
CC(C)CC(NC(=O)C(CC(C)C)NC(=O)C(Cc1cnc[nH]1)NC(=O)C(C)NC(=O)C(NC(=O)C(C)NC(=O)C(Cc1c[nH]c2ccccc12)NC(=O)C(CCC(=O)O)NC(=O)C(N)Cc1ccccc1)C(C)C)C(N)=O (stereo not given) (H-FEWAVAHLL-NH2; configuration not given here) | > 100 µM | > 100 µM | > 100 µM | > 100 µM | > 100 µM | > 100 µM | – | > 12.5 µM | > 100 µM | > 100 µM | – | > 12.5 µM | > 100 µM | > 100 µM | – | > 100 µM | > 100 µM | > 100 µM | > 100 µM | > 100 µM
Cc1ccccc1NC(=O)C(=O)C(c1cnc2ccc([N+](=O)[O-])cc2n1)[N+](=O)[O-] (stereo not given) | – | > 100 µM | – | > 100 µM | – | > 100 µM | – | > 100 µM | – | > 100 µM | – | > 100 µM | – | > 100 µM | – | > 100 µM | – | > 100 µM | – | > 100 µM
O=C1C(=O)N(C(=O)c2ccc(Cl)c(Cl)c2)c2ccc(Cl)cc21 | – | > 100 µM | – | > 100 µM | – | > 100 µM | – | > 100 µM | – | > 100 µM | – | > 100 µM | – | > 100 µM | – | > 100 µM | – | > 100 µM | – | > 100 µM
C#CCN=C(N/N=C/c1ccc([N+](=O)[O-])o1)NS(=O)(=O)c1cc(C)c(Cl)cc1SCC(N)=O | 26.9 µM | 84.4 µM | 13.9 µM | 27.2 µM | 16.5 µM | 33.3 µM | 19.9 µM | 34.5 µM | 13.8 µM | 29.6 µM | 15 µM | 35.8 µM | 17.3 µM | 31.7 µM | 25.8 µM | 59.8 µM | 22.6 µM | 84.9 µM | 47.3 µM | > 100 µM
O=C1OCc2c1cc(F)cc2[N+](=O)[O-] | 47.6 µM | > 100 µM | > 100 µM | > 100 µM | > 100 µM | > 100 µM | > 100 µM | > 100 µM | > 100 µM | > 100 µM | > 100 µM | > 100 µM | > 100 µM | > 100 µM | > 100 µM | > 100 µM | > 100 µM | > 100 µM | > 100 µM | > 100 µM
CN(C)C(=O)/N=c1\ss/c(=N\C(=S)N(C)C)n1-c1ccccc1 | 0.306 µM | > 100 µM | – | > 100 µM | – | 60.2 µM | – | > 100 µM | – | > 61.1 µM | 0.389 µM | > 100 µM | – | > 78.4 µM | – | 71.1 µM | – | > 100 µM | 1.92 µM | > 100 µM
COc1ccc(/C(C)=C(\c2ccc(Cl)cc2)c2ccc(OCCN3CCCC3)cc2)cc1F | 2.16 µM | 7.49 µM | 3.17 µM | 7.21 µM | 3.21 µM | 6.62 µM | 3.15 µM | 6.37 µM | 4.22 µM | 9.68 µM | 4.26 µM | 8.76 µM | 2.74 µM | 5.75 µM | 4.42 µM | 8.22 µM | 3.15 µM | 7.17 µM | 3.1 µM | 6.32 µM
O=[N+]([O-])c1cc(CCl)ccc1CCl | – | 3.19 µM | – | 2.92 µM | – | 3.22 µM | – | 6.18 µM | – | 7.17 µM | – | 4.21 µM | – | 7.14 µM | – | 6.88 µM | – | 3.14 µM | – | 11.4 µM
CN=C1Nc2ccc(Cl)cc2C(c2ccccc2)=NN1C | – | > 100 µM | – | > 100 µM | – | > 100 µM | – | > 100 µM | – | > 100 µM | – | > 100 µM | – | > 100 µM | – | > 100 µM | – | > 100 µM | – | > 100 µM
